In ChEMBL document CHEMBL1201862, “PubChem BioAssay data set” (2004):
Activity calls are given as the source filed them.

What was measured:
[1] = target: T1, Heat shock factor protein 1 (Mus musculus, UniProt P38532); test: inhibition of MG132-induced HSE-luciferase signal, confirmation, cell-based, NIH3T3, luminescence, dose retest (AID 2382); format: functional;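 further: NIH3T3 fibroblasts with HSF1-driven luciferase reporter stressed by proteasome inhibitor MG132; luminescence from HSF1-driven luciferase expression after 8 hours of MG132 stress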
T1 sequence (P38532 whole entry): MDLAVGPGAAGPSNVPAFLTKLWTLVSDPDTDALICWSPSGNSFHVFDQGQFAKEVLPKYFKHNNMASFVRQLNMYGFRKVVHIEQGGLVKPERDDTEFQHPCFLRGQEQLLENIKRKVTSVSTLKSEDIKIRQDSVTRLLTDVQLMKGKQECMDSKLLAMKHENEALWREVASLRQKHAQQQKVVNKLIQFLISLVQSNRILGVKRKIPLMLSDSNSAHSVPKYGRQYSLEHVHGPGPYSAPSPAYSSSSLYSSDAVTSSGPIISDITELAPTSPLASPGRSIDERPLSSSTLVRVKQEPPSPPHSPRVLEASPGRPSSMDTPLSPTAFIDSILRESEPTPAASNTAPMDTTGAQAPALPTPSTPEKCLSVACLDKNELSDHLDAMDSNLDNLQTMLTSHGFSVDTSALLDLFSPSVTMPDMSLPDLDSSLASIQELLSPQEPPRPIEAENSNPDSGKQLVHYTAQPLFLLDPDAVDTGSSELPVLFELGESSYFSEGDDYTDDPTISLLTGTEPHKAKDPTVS

[2] = target: T2, Sentrin-specific protease 8 (Homo sapiens, UniProt Q96LD8); format: functional
T2 sequence (Q96LD8 whole entry): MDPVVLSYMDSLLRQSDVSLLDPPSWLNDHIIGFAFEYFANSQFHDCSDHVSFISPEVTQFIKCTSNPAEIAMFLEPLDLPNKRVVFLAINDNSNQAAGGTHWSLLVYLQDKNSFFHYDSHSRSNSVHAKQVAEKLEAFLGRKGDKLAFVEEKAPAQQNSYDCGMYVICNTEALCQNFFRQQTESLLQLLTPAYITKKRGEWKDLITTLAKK

[3] = target: T2, Sentrin-specific protease 8; format: functional; remark: listed apart in the source
Caspase-6 = target: T3, Caspase-6 (Homo sapiens, UniProt P55212); test: human caspase-6 inhibitors, dose response, biochemical, VEID-R110 fluorescence, cherry-pick (AID 720632)
T3 sequence (P55212 whole entry): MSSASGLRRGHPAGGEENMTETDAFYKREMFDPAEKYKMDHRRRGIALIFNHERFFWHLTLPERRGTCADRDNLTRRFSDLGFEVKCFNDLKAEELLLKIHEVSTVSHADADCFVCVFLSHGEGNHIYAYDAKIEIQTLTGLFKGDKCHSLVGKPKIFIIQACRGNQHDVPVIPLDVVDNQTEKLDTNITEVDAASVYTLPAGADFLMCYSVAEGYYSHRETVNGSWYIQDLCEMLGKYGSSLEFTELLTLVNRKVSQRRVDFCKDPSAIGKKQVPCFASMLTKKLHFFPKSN

[4] = inhibitors of HIV Env-driven cell fusion, dose response, cherry-pick (AID 652057); format: functional, cell-based
[5] = ZM109 Env clade C HIV-1 fusion inhibitors, dose response, HeLa effector, CEM target cells, luciferase, cherry-pick (AID 652058); format: functional, cell-based
[6] = inhibitors of clade B AD8 Env fusion, dose response, cell-based, cherry-pick (AID 652062); format: functional;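 further: luciferase signal from cell-cell fusion driven by HIV-1 clade B AD8 Env; potency is for inhibitors of fusion seen as a drop in luminescence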
[7] = target: T4, Beta-2 adrenergic receptor (Homo sapiens, UniProt P07550); test: Dose response for HTS for Beta-2AR agonists via FAP method from Powderset1.; format: functional
[8] = target: T4, Beta-2 adrenergic receptor; test: beta2AR agonists driving receptor internalization, dose response, cell-based, FAP fluorogen, flow cytometry, cherry pick 1 (AID 588763); format: functional
[9] = target: Fructose-bisphosphate aldolase (Mycobacterium tuberculosis, UniProt P9WQA3); test: Fluorescence-based biochemical high throughput dose response assay for inhibitors of the fructose-bisphosphate aldolase (FBA) of M. tuberculosis.; format: functional
Beta-galactosidase = Beta-galactosidase (Escherichia coli, UniProt Q8VNN2); test: Dose response counterscreen for EBI2 assay utilizing the enzyme, b-galactosidase.; format: functional
[10] = NIH-3T3 fibroblast cytotoxicity, dose response, cytotoxicity control, cell-based, fluorescence, Alamar Blue, secondary assay (AID 2327); format: functional;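 further: NIH-3T3 mouse fibroblasts cultured with fluconazole at 8 µg/mL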
[11] = C. albicans growth with fluconazole, confirmation, fluorescence, retest (AID 2467); format: functional, cell-based
[12] = inhibitors of intracellular T. cruzi replication, confirmation, NIH3T3 host cells, beta-gal luminescence (AID 2044); format: functional, cell-based;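 further: intracellular parasites grown in NIH/3T3 mouse fibroblasts as host cells; luminescent beta-galactosidase reporter signal from transgenic T. cruzi replicating inside host cells; inhibitors lower the luminescence signal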
[13] = cytotoxicity toward NIH3T3 fibroblasts, dose response, counter-screen, cell-based, ATP luminescence, mouse fibroblasts (AID 2010); format: functional;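 further: cells exposed to compound for about 90 hours before reading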
Cytochrome P450 2C19 = Cytochrome P450 2C19 (Homo sapiens, UniProt P33261); test: Cytochrome panel assay with activity outcomes. Panel member name: p450-cyp2c19 Compounds with AC50 equal or less than 10 uM are considered active; format: functional
[14] = CEM21 lymphoblast cell cytotoxicity, dose response, cytotoxicity control for viral fusion inhibitor project, CellTiter-Glo luminescence, cherry-picked (AID 652042); format: functional, cell-based;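 further: potency for signal decrease meaning cytotoxicity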
[15] = off-target signal loss in HeLa-CEM21 co-culture – HeLa F-luc CTL cells, cherry-picked, counter-screen for HIV-1 Env fusion inhibitor project, dose response (AID 652040); format: functional, cell-based;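 further: potency for signal decrease marking cytotoxic or nonspecific inhibition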
cells [16] = test: cells
[17] = AlphaScreen signal interference compounds, dose response, artefact control for ARNT-TACC3 interaction inhibitor project, biochemical, luminescence, cherry-pick (AID 651705); format: functional;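 further: AlphaScreen bead proximity signal that flags compounds interfering with the detection technology; potency reflects signal decrease which marks the compound as an assay artifact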
cells [18] = format: functional, cell-based
[19] = target: Nuclear receptor subfamily 0 group B member 1 (Homo sapiens, UniProt P51843); format: functional, cell-based;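 further: HEK293T cells transfected with SF-1 and DAX-1 plus StAR promoter luciferase reporter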
Sequence of Nuclear receptor subfamily 0 group B member 1 (P51843 whole entry): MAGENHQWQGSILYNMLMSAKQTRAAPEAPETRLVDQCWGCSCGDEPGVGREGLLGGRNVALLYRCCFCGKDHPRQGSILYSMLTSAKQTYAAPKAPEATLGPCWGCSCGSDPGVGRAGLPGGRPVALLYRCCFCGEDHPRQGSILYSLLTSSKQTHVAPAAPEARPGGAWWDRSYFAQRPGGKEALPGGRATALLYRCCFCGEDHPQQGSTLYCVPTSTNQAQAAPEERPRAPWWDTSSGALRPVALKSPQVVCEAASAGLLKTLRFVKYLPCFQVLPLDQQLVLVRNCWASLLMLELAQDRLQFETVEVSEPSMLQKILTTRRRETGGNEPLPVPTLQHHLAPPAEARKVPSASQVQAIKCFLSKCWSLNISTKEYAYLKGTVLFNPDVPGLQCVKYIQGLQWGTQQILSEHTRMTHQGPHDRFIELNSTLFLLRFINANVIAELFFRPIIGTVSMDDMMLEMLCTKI

T4 sequence (P07550 whole entry): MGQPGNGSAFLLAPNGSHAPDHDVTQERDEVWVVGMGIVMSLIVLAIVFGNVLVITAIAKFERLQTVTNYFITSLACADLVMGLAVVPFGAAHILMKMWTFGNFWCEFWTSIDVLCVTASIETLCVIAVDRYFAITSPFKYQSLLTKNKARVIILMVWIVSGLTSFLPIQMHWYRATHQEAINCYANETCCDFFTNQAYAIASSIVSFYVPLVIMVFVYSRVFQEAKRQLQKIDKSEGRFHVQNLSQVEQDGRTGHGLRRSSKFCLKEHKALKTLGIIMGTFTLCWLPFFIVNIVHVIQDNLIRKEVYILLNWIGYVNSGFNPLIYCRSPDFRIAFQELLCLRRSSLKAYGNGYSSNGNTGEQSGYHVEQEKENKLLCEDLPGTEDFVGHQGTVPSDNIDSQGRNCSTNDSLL
Sequence of Fructose-bisphosphate aldolase (P9WQA3 whole entry): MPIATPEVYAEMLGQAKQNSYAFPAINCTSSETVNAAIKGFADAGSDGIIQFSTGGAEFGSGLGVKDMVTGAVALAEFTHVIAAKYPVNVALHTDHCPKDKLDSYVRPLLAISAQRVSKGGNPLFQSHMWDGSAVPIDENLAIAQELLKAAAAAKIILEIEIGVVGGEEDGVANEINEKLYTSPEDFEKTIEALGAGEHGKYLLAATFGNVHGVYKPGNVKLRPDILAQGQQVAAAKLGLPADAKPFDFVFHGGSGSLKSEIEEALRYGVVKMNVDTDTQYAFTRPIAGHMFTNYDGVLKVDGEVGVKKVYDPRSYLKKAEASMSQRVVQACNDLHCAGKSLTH
Sequence of Beta-galactosidase (Q8VNN2 whole entry): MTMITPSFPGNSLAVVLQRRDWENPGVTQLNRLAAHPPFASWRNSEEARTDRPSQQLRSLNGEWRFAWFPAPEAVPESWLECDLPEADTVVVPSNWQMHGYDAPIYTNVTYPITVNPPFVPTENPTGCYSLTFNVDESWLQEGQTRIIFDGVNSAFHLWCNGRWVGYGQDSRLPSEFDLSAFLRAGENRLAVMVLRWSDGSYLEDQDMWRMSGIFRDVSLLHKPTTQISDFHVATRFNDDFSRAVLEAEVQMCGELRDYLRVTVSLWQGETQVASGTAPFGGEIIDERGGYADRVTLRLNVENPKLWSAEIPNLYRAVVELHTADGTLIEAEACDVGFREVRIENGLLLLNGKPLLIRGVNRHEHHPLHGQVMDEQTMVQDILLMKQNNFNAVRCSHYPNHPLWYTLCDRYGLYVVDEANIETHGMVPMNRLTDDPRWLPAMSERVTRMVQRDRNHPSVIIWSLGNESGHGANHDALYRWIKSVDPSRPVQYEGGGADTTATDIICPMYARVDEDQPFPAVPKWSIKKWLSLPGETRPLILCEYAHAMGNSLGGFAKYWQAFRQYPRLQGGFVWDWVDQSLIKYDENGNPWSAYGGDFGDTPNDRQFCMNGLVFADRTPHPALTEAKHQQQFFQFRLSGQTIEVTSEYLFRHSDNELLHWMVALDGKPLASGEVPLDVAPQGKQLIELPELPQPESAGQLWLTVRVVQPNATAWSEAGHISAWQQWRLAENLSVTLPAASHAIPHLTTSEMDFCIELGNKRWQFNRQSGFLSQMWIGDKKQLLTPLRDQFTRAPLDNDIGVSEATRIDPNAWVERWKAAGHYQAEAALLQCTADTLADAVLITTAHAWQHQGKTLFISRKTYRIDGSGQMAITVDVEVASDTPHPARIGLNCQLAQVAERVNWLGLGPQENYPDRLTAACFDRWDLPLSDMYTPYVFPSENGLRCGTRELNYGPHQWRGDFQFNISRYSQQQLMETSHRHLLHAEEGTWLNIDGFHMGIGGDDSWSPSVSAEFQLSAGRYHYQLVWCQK
Sequence of Cytochrome P450 2C19 (P33261 whole entry, the tested form may be a part): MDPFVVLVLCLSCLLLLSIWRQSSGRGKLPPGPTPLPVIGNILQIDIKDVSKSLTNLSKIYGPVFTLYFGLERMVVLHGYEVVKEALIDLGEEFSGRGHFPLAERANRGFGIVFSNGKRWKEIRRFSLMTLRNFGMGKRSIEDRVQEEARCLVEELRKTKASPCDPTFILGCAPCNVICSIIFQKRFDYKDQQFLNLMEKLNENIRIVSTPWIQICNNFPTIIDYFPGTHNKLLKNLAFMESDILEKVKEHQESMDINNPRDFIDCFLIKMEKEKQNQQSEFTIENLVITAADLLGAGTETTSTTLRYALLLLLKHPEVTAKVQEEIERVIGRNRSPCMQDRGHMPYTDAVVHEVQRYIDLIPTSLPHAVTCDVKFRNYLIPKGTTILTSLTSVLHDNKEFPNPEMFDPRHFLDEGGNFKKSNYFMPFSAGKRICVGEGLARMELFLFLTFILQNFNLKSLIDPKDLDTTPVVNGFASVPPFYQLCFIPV

O=C1Cc2ccccc2C(=O)N1c1cccc(Cl)c1
EC50 [1]: > 195 µM (not active) | IC50 [2]: > 100 µM (inactive) | IC50 [3]: 6.08 µM (active) | AC50 (Caspase-6): 35.6 µM (active)

C[C@@H]1CN([C@@H](C)CO)C(=O)Cc2cc(NS(=O)(=O)c3cccs3)ccc2O[C@H]1CN(C)Cc1ccc(Cl)c(Cl)c1
AC50 [4]: 9.27 µM (active) | AC50 [5]: < 0.26 µM (active) | AC50 [6]: 0.486 µM (active)

CCOC(=O)N1CCN(C(=O)CN(C)S(=O)(=O)c2ccc(Cl)cc2)CC1
EC50 [7]: 0.987 µM (active) | EC50 [8]: 1.95 µM (active)

COCCCNC(=S)NCCCNc1nc2cc3c(cc2cc1C#N)OCO3
IC50 [9]: 1.2 µM (active)

CCc1ccc2oc(C(=O)N3CCN(c4ccc(OC)cc4)CC3)cc(=O)c2c1
IC50 (Beta-galactosidase): > 80 µM (inactive)

CN(C)c1ccc(/C=N\NC(=O)CC#N)cc1
IC50 [9]: > 1.11 µM (active)

CC[n+]1c(C=CN(C)c2ccccc2)sc2ccc(Cl)cc21.[O-][Cl+3]([O-])([O-])[O-]
EC50 [10]: > 150 µM (inactive) | EC50 [11]: 3.29 µM (active) | EC50 [12]: < 0.1 µM (active) | EC50 [13]: 5.94 µM (active) | AC50 (Cytochrome P450 2C19): inconclusive | AC50 [4]: 26.3 µM (active) | AC50 [14]: 59.3 µM (active) | AC50 [5]: 39.8 µM (active) | AC50 [15]: 13 µM (active) | AC50 [6]: 8.92 µM (active) | EC50 (cells [16]): 0.146 µM (active)

O=C(CSc1ccc(-c2ccccn2)nn1)c1ccc([N+](=O)[O-])cc1
AC50 [17]: 131 µM (active)

C/C(=N/NC(=O)c1ccoc1C)c1cccc(NC(=O)C(F)(F)F)c1
IC50 (cells [18]): > 67.5 µM (inactive) | IC50 [19]: > 67.5 µM (inactive)
